# Reference: the kinase profiling compilation of Christmann-Franck et al. (2016)
# What was measured:
# Test in all cases: KINOMEscan competition binding
# Settings in all cases: compound 10.0 µM
# PDPK1 (human) = PDPK1 (human) (UniProt O15530)
# AAK1 (human) = AAK1 (human) (UniProt Q2M2I8)
# MLTK (human) = MLTK (human) (UniProt Q9NYL2)
# AXL (human) = AXL (human) (UniProt P30530)
# STK3 (human) = STK3 (human) (UniProt Q13188)
# TEK (human) = TEK (human) (UniProt Q02763)
# MAPK3 (human) = MAPK3 (human) (UniProt P27361)
# MAP3K4 (human) = MAP3K4 (human) (UniProt Q9Y6R4)
# [1] = system: FLT3 (human), P36888 [N841I]
# ADCK4 (human) = ADCK4 (human) (UniProt Q96D53)
# BRSK2 (human) = BRSK2 (human) (UniProt Q8IWQ3)
# SGK110 (human) = SGK110 (human) (UniProt P0C264)
# [2] = target: JAK1 JH1 catalytic (human) (UniProt P23458)
# CDK8 (human) = CDK8 (human) (UniProt P49336)
# PTK6 (human) = PTK6 (human) (UniProt Q13882)
# WEE2 (human) = WEE2 (human) (UniProt P0C1S8)
# EPHA6 (human) = EPHA6 (human) (UniProt Q9UF33)
# DCLK2 (human) = DCLK2 (human) (UniProt Q8N568)
# ULK1 (human) = ULK1 (human) (UniProt O75385)
# RIPK2 (human) = RIPK2 (human) (UniProt O43353)
# CSNK1G1 (human) = CSNK1G1 (human) (UniProt Q9HCP0)
# NTRK3 (human) = NTRK3 (human) (UniProt Q16288)
# TEC (human) = TEC (human) (UniProt P42680)
# MKNK1 (human) = MKNK1 (human) (UniProt Q9BUB5)
# IRAK3 (human) = IRAK3 (human) (UniProt Q9Y616)
# CIT (human) = CIT (human) (UniProt O14578)
# IKBKE (human) = IKBKE (human) (UniProt Q14164)
# [3] = system: FLT3 (human), P36888 [ITD]
# CDK18 (human) = CDK18 (human) (UniProt Q07002)
# STK32B (human) = STK32B (human) (UniProt Q9NY57)
# WEE1 (human) = WEE1 (human) (UniProt P30291)
# EPHA5 (human) = EPHA5 (human) (UniProt P54756)
# CDC42BPA (human) = CDC42BPA (human) (UniProt Q5VT25)
# PAK4 (human) = PAK4 (human) (UniProt O96013)
# ITK (human) = ITK (human) (UniProt Q08881)
# DAPK2 (human) = DAPK2 (human) (UniProt Q9UIK4)
# MAP2K6 (human) = MAP2K6 (human) (UniProt P52564)
# ULK2 (human) = ULK2 (human) (UniProt Q8IYT8)
# MARK2 (human) = MARK2 (human) (UniProt Q7KZI7)
# MAP3K7 (human) = MAP3K7 (human) (UniProt O43318)
# MAP3K7 (human), sequence (O43318 whole entry, looked up): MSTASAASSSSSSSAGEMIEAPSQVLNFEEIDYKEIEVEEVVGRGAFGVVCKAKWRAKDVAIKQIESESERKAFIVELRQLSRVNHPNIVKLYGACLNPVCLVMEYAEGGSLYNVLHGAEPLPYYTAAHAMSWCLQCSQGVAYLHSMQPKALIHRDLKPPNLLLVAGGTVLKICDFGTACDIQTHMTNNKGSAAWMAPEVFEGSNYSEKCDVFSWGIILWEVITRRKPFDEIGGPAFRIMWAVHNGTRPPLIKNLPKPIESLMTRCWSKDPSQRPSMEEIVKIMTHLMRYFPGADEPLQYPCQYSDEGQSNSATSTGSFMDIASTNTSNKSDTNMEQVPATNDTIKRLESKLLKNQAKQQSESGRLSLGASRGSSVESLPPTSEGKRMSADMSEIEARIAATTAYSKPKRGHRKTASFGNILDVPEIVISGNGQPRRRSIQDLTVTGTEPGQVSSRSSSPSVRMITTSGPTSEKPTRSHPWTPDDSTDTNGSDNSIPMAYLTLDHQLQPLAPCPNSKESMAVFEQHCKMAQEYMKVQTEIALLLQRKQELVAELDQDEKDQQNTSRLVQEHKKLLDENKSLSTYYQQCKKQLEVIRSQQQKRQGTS
# MAPK3 (human), sequence (P27361 whole entry, looked up): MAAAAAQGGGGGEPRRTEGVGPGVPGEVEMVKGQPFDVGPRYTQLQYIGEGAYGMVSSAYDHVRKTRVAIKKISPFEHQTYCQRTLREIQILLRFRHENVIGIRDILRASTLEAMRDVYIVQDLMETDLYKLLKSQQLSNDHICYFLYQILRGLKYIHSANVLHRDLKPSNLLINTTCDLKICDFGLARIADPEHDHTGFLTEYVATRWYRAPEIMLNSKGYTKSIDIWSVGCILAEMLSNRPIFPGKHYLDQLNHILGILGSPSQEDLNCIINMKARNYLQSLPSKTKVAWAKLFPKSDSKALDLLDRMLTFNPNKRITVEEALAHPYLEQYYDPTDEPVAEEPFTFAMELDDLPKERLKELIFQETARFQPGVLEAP
# MAP3K4 (human), sequence (Q9Y6R4 whole entry, looked up): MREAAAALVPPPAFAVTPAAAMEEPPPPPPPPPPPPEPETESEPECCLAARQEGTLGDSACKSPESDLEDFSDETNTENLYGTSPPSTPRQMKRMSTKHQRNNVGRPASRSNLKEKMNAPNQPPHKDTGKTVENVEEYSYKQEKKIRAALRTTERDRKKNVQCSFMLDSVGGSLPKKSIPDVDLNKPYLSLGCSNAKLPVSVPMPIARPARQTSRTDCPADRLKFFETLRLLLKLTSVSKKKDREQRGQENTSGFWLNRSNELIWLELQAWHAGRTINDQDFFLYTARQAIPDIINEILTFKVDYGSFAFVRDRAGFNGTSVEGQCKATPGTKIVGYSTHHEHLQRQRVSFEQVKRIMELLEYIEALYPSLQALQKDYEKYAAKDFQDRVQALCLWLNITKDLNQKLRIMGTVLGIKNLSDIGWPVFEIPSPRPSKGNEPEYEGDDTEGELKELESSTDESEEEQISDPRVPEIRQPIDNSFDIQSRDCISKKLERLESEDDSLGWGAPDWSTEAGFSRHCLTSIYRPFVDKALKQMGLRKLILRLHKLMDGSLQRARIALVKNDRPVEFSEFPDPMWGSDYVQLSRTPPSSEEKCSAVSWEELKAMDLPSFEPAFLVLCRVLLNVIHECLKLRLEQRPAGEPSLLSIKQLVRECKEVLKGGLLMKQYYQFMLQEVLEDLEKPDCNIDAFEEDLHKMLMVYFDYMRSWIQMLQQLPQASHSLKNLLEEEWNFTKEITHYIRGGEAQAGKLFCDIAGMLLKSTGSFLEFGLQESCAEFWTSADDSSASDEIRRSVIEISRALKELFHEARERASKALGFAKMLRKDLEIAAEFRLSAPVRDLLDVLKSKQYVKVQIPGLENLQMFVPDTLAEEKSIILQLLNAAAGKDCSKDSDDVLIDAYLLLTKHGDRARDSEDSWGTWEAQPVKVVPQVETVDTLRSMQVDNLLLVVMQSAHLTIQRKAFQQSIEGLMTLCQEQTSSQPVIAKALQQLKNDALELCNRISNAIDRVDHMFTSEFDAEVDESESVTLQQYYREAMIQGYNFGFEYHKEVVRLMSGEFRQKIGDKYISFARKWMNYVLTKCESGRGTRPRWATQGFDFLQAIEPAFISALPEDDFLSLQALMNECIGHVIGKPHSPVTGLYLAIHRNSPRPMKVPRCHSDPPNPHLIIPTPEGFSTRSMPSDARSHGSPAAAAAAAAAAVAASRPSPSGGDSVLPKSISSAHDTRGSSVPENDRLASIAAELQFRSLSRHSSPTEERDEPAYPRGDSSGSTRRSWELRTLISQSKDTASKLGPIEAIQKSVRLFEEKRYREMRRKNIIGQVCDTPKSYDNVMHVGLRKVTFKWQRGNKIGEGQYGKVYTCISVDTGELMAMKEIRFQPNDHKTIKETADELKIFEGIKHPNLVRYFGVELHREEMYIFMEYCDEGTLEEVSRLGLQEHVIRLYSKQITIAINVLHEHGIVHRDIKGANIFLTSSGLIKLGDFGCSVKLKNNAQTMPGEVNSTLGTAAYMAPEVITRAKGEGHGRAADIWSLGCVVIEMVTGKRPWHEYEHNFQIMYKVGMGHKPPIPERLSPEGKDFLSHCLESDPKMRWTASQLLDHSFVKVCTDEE
# MARK2 (human), sequence (Q7KZI7 whole entry, looked up): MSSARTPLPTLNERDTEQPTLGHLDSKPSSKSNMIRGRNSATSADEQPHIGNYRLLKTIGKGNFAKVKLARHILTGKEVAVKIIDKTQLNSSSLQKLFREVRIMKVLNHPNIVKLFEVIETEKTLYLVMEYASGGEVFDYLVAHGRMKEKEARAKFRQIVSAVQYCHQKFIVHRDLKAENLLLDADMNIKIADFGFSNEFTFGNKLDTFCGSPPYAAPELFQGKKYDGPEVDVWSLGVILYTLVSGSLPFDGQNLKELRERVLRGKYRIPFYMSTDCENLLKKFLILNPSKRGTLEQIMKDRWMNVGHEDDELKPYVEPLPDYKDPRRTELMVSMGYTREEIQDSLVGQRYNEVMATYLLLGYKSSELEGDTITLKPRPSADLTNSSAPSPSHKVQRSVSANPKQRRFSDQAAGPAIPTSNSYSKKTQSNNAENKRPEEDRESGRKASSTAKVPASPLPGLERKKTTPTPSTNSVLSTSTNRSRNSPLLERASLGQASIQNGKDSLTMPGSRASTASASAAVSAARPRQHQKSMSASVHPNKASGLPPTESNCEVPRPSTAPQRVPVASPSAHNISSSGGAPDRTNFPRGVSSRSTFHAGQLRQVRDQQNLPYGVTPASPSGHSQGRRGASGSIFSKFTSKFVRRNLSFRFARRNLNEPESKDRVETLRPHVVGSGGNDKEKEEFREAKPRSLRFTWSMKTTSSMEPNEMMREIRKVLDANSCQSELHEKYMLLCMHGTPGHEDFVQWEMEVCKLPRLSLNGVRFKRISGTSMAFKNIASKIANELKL
# BRSK2 (human), sequence (Q8IWQ3 whole entry, looked up): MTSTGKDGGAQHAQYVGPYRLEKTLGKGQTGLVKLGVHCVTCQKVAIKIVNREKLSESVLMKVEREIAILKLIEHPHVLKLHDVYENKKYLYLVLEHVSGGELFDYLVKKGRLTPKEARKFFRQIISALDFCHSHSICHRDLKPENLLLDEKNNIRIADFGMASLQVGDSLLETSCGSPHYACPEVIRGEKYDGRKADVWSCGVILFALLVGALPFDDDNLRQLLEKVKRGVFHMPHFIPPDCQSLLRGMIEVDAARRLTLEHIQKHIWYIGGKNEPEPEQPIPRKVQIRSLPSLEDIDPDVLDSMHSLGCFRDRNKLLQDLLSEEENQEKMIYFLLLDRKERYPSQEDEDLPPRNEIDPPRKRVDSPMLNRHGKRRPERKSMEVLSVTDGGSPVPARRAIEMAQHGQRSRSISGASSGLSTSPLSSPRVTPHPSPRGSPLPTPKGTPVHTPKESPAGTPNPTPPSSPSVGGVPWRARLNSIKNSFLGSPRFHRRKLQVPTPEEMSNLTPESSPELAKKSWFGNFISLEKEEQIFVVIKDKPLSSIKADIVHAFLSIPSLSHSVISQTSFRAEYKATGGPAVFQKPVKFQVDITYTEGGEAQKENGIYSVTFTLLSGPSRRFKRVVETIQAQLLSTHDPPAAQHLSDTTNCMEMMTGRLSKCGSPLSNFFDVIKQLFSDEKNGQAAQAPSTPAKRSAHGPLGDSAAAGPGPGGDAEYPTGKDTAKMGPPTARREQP
# CDK18 (human), sequence (Q07002 whole entry, looked up): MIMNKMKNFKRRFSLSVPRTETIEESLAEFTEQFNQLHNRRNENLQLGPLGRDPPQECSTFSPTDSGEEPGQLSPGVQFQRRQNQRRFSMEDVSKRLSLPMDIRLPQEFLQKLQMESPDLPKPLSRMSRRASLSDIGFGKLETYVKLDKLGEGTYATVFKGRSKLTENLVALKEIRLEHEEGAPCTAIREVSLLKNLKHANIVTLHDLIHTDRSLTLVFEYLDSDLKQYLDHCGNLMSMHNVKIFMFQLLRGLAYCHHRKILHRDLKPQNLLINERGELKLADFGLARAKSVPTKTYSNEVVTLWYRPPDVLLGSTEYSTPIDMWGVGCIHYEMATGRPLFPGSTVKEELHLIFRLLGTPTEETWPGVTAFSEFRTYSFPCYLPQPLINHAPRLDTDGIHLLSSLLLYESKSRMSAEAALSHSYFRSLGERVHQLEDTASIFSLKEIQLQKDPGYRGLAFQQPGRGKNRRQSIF
# SGK110 (human), sequence (P0C264 whole entry, looked up): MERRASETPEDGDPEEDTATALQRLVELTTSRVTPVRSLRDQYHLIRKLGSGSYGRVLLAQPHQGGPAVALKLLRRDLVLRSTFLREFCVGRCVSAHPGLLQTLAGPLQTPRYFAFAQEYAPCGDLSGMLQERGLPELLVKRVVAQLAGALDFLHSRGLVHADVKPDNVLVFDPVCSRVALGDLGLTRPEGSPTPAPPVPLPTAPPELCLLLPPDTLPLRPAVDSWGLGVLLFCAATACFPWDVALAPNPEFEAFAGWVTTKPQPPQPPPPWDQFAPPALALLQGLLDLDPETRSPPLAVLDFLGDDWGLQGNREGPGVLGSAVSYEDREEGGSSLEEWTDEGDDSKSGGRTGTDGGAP
SMILES,"kinase still bound, per cent of control (PDPK1 (human)) [%]","kinase still bound, per cent of control (AAK1 (human)) [%]","kinase still bound, per cent of control (MLTK (human)) [%]","kinase still bound, per cent of control (AXL (human)) [%]","kinase still bound, per cent of control (STK3 (human)) [%]","kinase still bound, per cent of control (TEK (human)) [%]","kinase still bound, per cent of control (MAPK3 (human)) [%]","kinase still bound, per cent of control (MAP3K4 (human)) [%]","kinase still bound, per cent of control [1] [%]","kinase still bound, per cent of control (ADCK4 (human)) [%]","kinase still bound, per cent of control (BRSK2 (human)) [%]","kinase still bound, per cent of control (SGK110 (human)) [%]","kinase still bound, per cent of control [2] [%]","kinase still bound, per cent of control (CDK8 (human)) [%]","kinase still bound, per cent of control (PTK6 (human)) [%]","kinase still bound, per cent of control (WEE2 (human)) [%]","kinase still bound, per cent of control (EPHA6 (human)) [%]","kinase still bound, per cent of control (DCLK2 (human)) [%]","kinase still bound, per cent of control (ULK1 (human)) [%]","kinase still bound, per cent of control (RIPK2 (human)) [%]",other results
Cn1c(=O)n(-c2ccc(C(C)(C)C#N)cc2)c2c3cc(-c4cnc5ccccc5c4)ccc3ncc21,100,100,100,100,100,100,100,100,100,100,100,100,16,100,100,100,100,100,100,100,"kinase still bound, per cent of control (CSNK1G1 (human)): 100%; kinase still bound, per cent of control (NTRK3 (human)): 100%; kinase still bound, per cent of control (TEC (human)): 100%; kinase still bound, per cent of control (MKNK1 (human)): 100%; kinase still bound, per cent of control (IRAK3 (human)): 100%; kinase still bound, per cent of control (CIT (human)): 100%; kinase still bound, per cent of control (IKBKE (human)): 100%; kinase still bound, per cent of control [3]: 100%; kinase still bound, per cent of control (CDK18 (human)): 100%; kinase still bound, per cent of control (STK32B (human)): 100%; kinase still bound, per cent of control (WEE1 (human)): 100%; kinase still bound, per cent of control (EPHA5 (human)): 100%; kinase still bound, per cent of control (CDC42BPA (human)): 100%; kinase still bound, per cent of control (PAK4 (human)): 100%; kinase still bound, per cent of control (ITK (human)): 100%; kinase still bound, per cent of control (DAPK2 (human)): 100%; kinase still bound, per cent of control (MAP2K6 (human)): 100%; kinase still bound, per cent of control (ULK2 (human)): 100%; kinase still bound, per cent of control (MARK2 (human)): 100%; kinase still bound, per cent of control (MAP3K7 (human)): 100%"
C=CC(=O)Nc1cccc(Nc2nc(N[C@H]3CC[C@H](N(C)C)CC3)nc3c2ncn3C(C)C)c1,100,45,100,40,57,95,100,100,0,94,100,88,88,100,100,100,73,89,0.7,100,"kinase still bound, per cent of control (CSNK1G1 (human)): 28%; kinase still bound, per cent of control (NTRK3 (human)): 28%; kinase still bound, per cent of control (TEC (human)): 100%; kinase still bound, per cent of control (MKNK1 (human)): 32%; kinase still bound, per cent of control (IRAK3 (human)): 38%; kinase still bound, per cent of control (CIT (human)): 50%; kinase still bound, per cent of control (IKBKE (human)): 95%; kinase still bound, per cent of control [3]: 1%; kinase still bound, per cent of control (CDK18 (human)): 77%; kinase still bound, per cent of control (STK32B (human)): 100%; kinase still bound, per cent of control (WEE1 (human)): 51%; kinase still bound, per cent of control (EPHA5 (human)): 76%; kinase still bound, per cent of control (CDC42BPA (human)): 82%; kinase still bound, per cent of control (PAK4 (human)): 17%; kinase still bound, per cent of control (ITK (human)): 65%; kinase still bound, per cent of control (DAPK2 (human)): 37%; kinase still bound, per cent of control (MAP2K6 (human)): 100%; kinase still bound, per cent of control (ULK2 (human)): 2%; kinase still bound, per cent of control (MARK2 (human)): 57%; kinase still bound, per cent of control (MAP3K7 (human)): 21%"
